{
  "source": "the supplement of paper PMC10307832",
  "assay_in_all_cases": "relative viability (nuclei count vs DMSO), 5 days (fraction); higher = more cells survive",
  "key": {"NCI-H1792": {"test_system": "NCI-H1792", "procedure,_shortened": "(§1)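 One day after seeding in 1536-well plates, lung cancer cell lines were dosed by pin tool. Dosing was either single-drug or a fixed anchor-drug dose plus five library-drug doses (not always all listed) in √10 steps. After 5 days, nuclei were stained in one fix-and-stain step and counted on 4× images, and relative viability is the nuclei count of treated wells over that of vehicle wells, given as the median of duplicate plates.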"}, "NCI-H1915": {"test_system": "NCI-H1915", "procedure,_shortened": "as §1"}, "NCI-H1975": {"test_system": "NCI-H1975", "procedure,_shortened": "as §1"}, "NCI-H2023": {"test_system": "NCI-H2023", "procedure,_shortened": "as §1"}, "NCI-H2342": {"test_system": "NCI-H2342", "procedure,_shortened": "as §1"}, "NCI-H2347": {"test_system": "NCI-H2347", "procedure,_shortened": "as §1"}, "NCI-H2405": {"test_system": "NCI-H2405", "procedure,_shortened": "as §1"}, "NCI-H520": {"test_system": "NCI-H520", "procedure,_shortened": "as §1"}, "NCI-H838": {"test_system": "NCI-H838", "procedure,_shortened": "as §1"}, "SW 1573": {"test_system": "SW 1573", "procedure,_shortened": "as §1"}, "SW 900": {"test_system": "SW 900", "procedure,_shortened": "as §1"}, "UMC-11": {"test_system": "UMC-11", "procedure,_shortened": "as §1"}},
  "data": [
    {"smiles": "Cc1csc(=NC2CCCCC2)n1/N=C/c1ccc(O)c(O)c1O", "note": "[MIM1] + N=C(N)NC(=N)NCCc1ccccc1 [Phenformin] (partner 250 µM)", "values": [
      {"measurement": "relative viability", "setting": "NCI-H1792; first compound 6.325 µM", "value": 0.353},
      {"measurement": "relative viability", "setting": "NCI-H1792; first compound 20 µM", "value": 0.43},
      {"measurement": "relative viability", "setting": "NCI-H1915; first compound 0.2 µM", "value": 0.421},
      {"measurement": "relative viability", "setting": "NCI-H1915; first compound 0.6325 µM", "value": 0.306},
      {"measurement": "relative viability", "setting": "NCI-H1915; first compound 2 µM", "value": 0.344},
      {"measurement": "relative viability", "setting": "NCI-H1915; first compound 6.325 µM", "value": 0.295},
      {"measurement": "relative viability", "setting": "NCI-H1915; first compound 20 µM", "value": 0.22},
      {"measurement": "relative viability", "setting": "NCI-H1975; first compound 0.2 µM", "value": 0.432},
      {"measurement": "relative viability", "setting": "NCI-H1975; first compound 0.6325 µM", "value": 0.403},
      {"measurement": "relative viability", "setting": "NCI-H1975; first compound 2 µM", "value": 0.39},
      {"measurement": "relative viability", "setting": "NCI-H1975; first compound 6.325 µM", "value": 0.296},
      {"measurement": "relative viability", "setting": "NCI-H1975; first compound 20 µM", "value": 0.179},
      {"measurement": "relative viability", "setting": "NCI-H2023; first compound 0.2 µM", "value": 0.417},
      {"measurement": "relative viability", "setting": "NCI-H2023; first compound 0.6325 µM", "value": 0.416},
      {"measurement": "relative viability", "setting": "NCI-H2023; first compound 2 µM", "value": 0.294},
      {"measurement": "relative viability", "setting": "NCI-H2023; first compound 6.325 µM", "value": 0.127},
      {"measurement": "relative viability", "setting": "NCI-H2023; first compound 20 µM", "value": 0.0931},
      {"measurement": "relative viability", "setting": "NCI-H2342; first compound 0.2 µM", "value": 0.656},
      {"measurement": "relative viability", "setting": "NCI-H2342; first compound 0.6325 µM", "value": 0.543},
      {"measurement": "relative viability", "setting": "NCI-H2342; first compound 2 µM", "value": 0.584},
      {"measurement": "relative viability", "setting": "NCI-H2342; first compound 6.325 µM", "value": 0.53},
      {"measurement": "relative viability", "setting": "NCI-H2342; first compound 20 µM", "value": 0.785},
      {"measurement": "relative viability", "setting": "NCI-H2347; first compound 0.2 µM", "value": 0.435},
      {"measurement": "relative viability", "setting": "NCI-H2347; first compound 0.6325 µM", "value": 0.32},
      {"measurement": "relative viability", "setting": "NCI-H2347; first compound 2 µM", "value": 0.387},
      {"measurement": "relative viability", "setting": "NCI-H2347; first compound 6.325 µM", "value": 0.39},
      {"measurement": "relative viability", "setting": "NCI-H2347; first compound 20 µM", "value": 0.288},
      {"measurement": "relative viability", "setting": "NCI-H2405; first compound 0.2 µM", "value": 0.402},
      {"measurement": "relative viability", "setting": "NCI-H2405; first compound 0.6325 µM", "value": 0.375},
      {"measurement": "relative viability", "setting": "NCI-H2405; first compound 2 µM", "value": 0.385},
      {"measurement": "relative viability", "setting": "NCI-H2405; first compound 6.325 µM", "value": 0.386},
      {"measurement": "relative viability", "setting": "NCI-H2405; first compound 20 µM", "value": 0.371},
      {"measurement": "relative viability", "setting": "NCI-H520; first compound 0.2 µM", "value": 0.793},
      {"measurement": "relative viability", "setting": "NCI-H520; first compound 0.6325 µM", "value": 0.512},
      {"measurement": "relative viability", "setting": "NCI-H520; first compound 2 µM", "value": 0.561},
      {"measurement": "relative viability", "setting": "NCI-H520; first compound 6.325 µM", "value": 0.447},
      {"measurement": "relative viability", "setting": "NCI-H520; first compound 20 µM", "value": 0.323},
      {"measurement": "relative viability", "setting": "NCI-H838; first compound 0.2 µM", "value": 0.543},
      {"measurement": "relative viability", "setting": "NCI-H838; first compound 0.6325 µM", "value": 0.621},
      {"measurement": "relative viability", "setting": "NCI-H838; first compound 2 µM", "value": 0.562},
      {"measurement": "relative viability", "setting": "NCI-H838; first compound 6.325 µM", "value": 0.354},
      {"measurement": "relative viability", "setting": "NCI-H838; first compound 20 µM", "value": 0.14},
      {"measurement": "relative viability", "setting": "SW 1573; first compound 0.2 µM", "value": 0.377},
      {"measurement": "relative viability", "setting": "SW 1573; first compound 0.6325 µM", "value": 0.455},
      {"measurement": "relative viability", "setting": "SW 1573; first compound 2 µM", "value": 0.442},
      {"measurement": "relative viability", "setting": "SW 1573; first compound 6.325 µM", "value": 0.25},
      {"measurement": "relative viability", "setting": "SW 1573; first compound 20 µM", "value": 0.081},
      {"measurement": "relative viability", "setting": "SW 900; first compound 0.2 µM", "value": 0.683},
      {"measurement": "relative viability", "setting": "SW 900; first compound 0.6325 µM", "value": 0.712},
      {"measurement": "relative viability", "setting": "SW 900; first compound 2 µM", "value": 0.778},
      {"measurement": "relative viability", "setting": "SW 900; first compound 6.325 µM", "value": 0.495},
      {"measurement": "relative viability", "setting": "SW 900; first compound 20 µM", "value": 0.176},
      {"measurement": "relative viability", "setting": "UMC-11; first compound 0.2 µM", "value": 0.326},
      {"measurement": "relative viability", "setting": "UMC-11; first compound 2 µM", "value": 0.336},
      {"measurement": "relative viability", "setting": "UMC-11; first compound 6.325 µM", "value": 0.291},
      {"measurement": "relative viability", "setting": "UMC-11; first compound 20 µM", "value": 0.201}
    ]}
  ]
}
